Earlier results as cited in patent US20260356814A1, “INDOLINE DERIVATIVES AS SEROTONERGIC AGENTS USEFUL FOR THE TREATMENT OF DISORDERS RELATED THERETO” (MINDSET PHARMA INC., priority 2022, published 2026).
Read-outs that look alike come from different tables or passages of the source.

Tests used:
[1] = target: 5-HT2A and 5-HT2C receptors; conditions: compared with LSD; cited from earlier work
human 5-HT2A receptor = human 5-HT2A receptor (Homo sapiens, UniProt P28223); conditions: cited from earlier work
tobacco use disorder = conditions: cited from earlier work
5-HT2 receptor = conditions: daily administration; cited from earlier work
[2] = system: absolute metabolic rate of glucose in frontal and other cortical regions, striatal and limbic subcortical structures; conditions: 15 or 20 mg orally, healthy participants; cited from earlier work
[3] = controlled setting; cited from earlier work
[4] = system: brain's default mode network; conditions: intravenously administered; cited from earlier work
[5] = system: subpopulations of low attentive and low motivated rats; conditions: rat, in vivo; cited from earlier work
[6] = system: depression and anxiety associated with life-threatening disease; conditions: in a supportive setting; cited from earlier work

Sequence of human 5-HT2A receptor (P28223 whole entry): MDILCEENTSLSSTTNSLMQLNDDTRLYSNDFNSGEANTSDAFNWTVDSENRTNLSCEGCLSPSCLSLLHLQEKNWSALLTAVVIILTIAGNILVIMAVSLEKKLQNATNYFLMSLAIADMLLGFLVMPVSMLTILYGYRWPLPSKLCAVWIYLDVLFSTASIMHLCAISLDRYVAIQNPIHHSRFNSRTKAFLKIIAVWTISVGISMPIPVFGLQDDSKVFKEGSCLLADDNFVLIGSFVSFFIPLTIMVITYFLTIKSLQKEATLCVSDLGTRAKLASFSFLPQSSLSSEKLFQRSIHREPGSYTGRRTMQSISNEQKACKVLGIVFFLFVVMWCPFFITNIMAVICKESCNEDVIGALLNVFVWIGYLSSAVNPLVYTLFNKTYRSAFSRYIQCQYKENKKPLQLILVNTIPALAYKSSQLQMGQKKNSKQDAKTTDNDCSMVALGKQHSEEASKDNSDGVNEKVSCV

SMILES: CN(C)CCc1c[nH]c2cccc(OP(=O)(O)O)c12 [Psilocybin, 4-phosphoryloxy-N,N-dimethyltrypatmine]
- K (i) for 5-HT2A and 5-HT2C relative to LSD [1]: lower K (i) for both 5-HT2A and 5-HT2C receptors than LSD
- affinity for 5-HT2A, human versus rat receptor (human 5-HT2A receptor): stronger affinity for the human 5-HT2A receptor than for the rat receptor
- abstinence rate (tobacco use disorder; 12 months follow-up): 67%
- abstinence rate (tobacco use disorder; six months follow-up): 80%
- 5-HT2 receptor density in rat brain (5-HT2 receptor): reduce 5-HT2 receptor density in rat brain
- absolute metabolic rate of glucose [2]: increased absolute metabolic rate of glucose in frontal, and to a lesser extent in other, cortical regions as well as in striatal and limbic subcortical structures
- headache [3]: transient, delayed headache, with incidence, duration, and severity increased in a dose-related manner
- oscillatory power in areas of the brain's default mode network [4]: decreases in oscillatory power in areas of the brain's default mode network
- performance on 5 choice serial reaction time and progressive ratio tasks [5]: improved performance on 5 choice serial reaction time and progressive ratio tasks
- anti-depressant and anxiolytic effects [6]: significant and sustained anti-depressant and anxiolytic effects
